Our source for the IC50 values is US11851440B2, “Modulators of eukaryotic initiation factor 2B, compositions and methods” (Denali Therapeutics Inc., priority 2017, dated 2023).

Where two headings read alike, the source gives them in different places. Where only a bound is given, the exact number is not on record here.

The test system of the experiment is ISR pathway (ATF4 translation). As to the kind of experiment: ATF4 Nano Luciferase reporter integrated stress response (ISR) assay in H4 ATF4-NLuc cells. The settings on record: Homo sapiens, compound 30 minutes, then 50 um sodium arsenite for 6 hours, luminescence readout. In general terms: In a reporter assay the amount or activity of a reporter protein is the signal.

Where [1] appears, read: read-out: Activity (IC50), H4 ATF4-NLuc (clone 17) cells.

The IC50 is the concentration that inhibits the measured activity by half. Regarding `CC(c1nnc(C23CC(NC(=O)COc4ccc(Cl)c(F)c4)(C2)C3)o1)C1CC1` (centres unmarked) [Example 8, 2-(4-chloro-3-fluoro-phenoxy)-N-[1-[5-(1-cyclopropylethyl)-1,3,4-oxadiazol-2-yl]-3-bicyclo[1.1.1]pentanyl]acetamide], the IC50 under setting [1] is below 1000 nM.
Still for that read-out and setting: under `O=C(COc1ccc(Cl)c(F)c1)NC12CC(c3nnc(C4(F)CC4)o3)(C1)C2` [Example 10, 2-(4-chloro-3-fluoro-phenoxy)-N-[1-[5-(1-fluorocyclopropyl)-1,3,4-oxadiazol-2-yl]-3-bicyclo[1.1.1]pentanyl]acetamide] stands below 1000 nM; under `O=C(COc1ccc(Cl)c(F)c1)NC12CC(c3nnc(CC4CC4)o3)(C1)C2` [Example 11, 2-(4-chloro-3-fluoro-phenoxy)-N-[1-[5-(cyclopropylmethyl)-1,3,4-oxadiazol-2-yl]-3-bicyclo[1.1.1]pentanyl]acetamide], below 1000 nM.
In the case of `O=C(CO[C@H]1C[C@@H](OC(F)(F)F)C1)NC12CC(c3nnc(-c4ccc(Cl)c(F)c4)o3)(C1)C2` [Example 12, N-[3-[5-(4-chloro-3-fluoro-phenyl)-1,3,4-oxadiazol-2-yl]-1-bicyclo[1.1.1]pentanyl]-2-[cis-3-(trifluoromethoxy)cyclobutoxy]acetamide], the IC50 under setting [1] was below 1000 nM.
The same measure, in the same setting: under `CC(C)(C)OC(=O)N1CC(c2nnc(C34CC(NC(=O)COc5ccc(Cl)c(F)c5)(C3)C4)o2)C1` [Example 13, tert-Butyl 3-[5-[3-[[2-(4-chloro-3-fluoro-phenoxy)acetyl]amino]-1-bicyclo[1.1.1]pentanyl]-1,3,4-oxadiazol-2-yl]azetidine-1-carboxylate] stands below 1000 nM.
Regarding `CC(C)(C)OC(=O)N1CCC(c2nnc(C34CC(NC(=O)COc5ccc(Cl)c(F)c5)(C3)C4)o2)C1` (centres unmarked) [Example 14, tert-butyl 3-[5-[3-[[2-(4-chloro-3-fluoro-phenoxy)acetyl]amino]-1-bicyclo[1.1.1]pentanyl]-1,3,4-oxadiazol-2-yl]pyrrolidine-1-carboxylate], the IC50 under setting [1] is below 1000 nM.
Turning to `O=C(COc1ccc(Cl)c(F)c1)NC12CC(c3nnc(C4CN(CC(F)(F)F)C4)o3)(C1)C2` [Example 15, 2-(4-chloro-3-fluoro-phenoxy)-N-[1-[5-[1-(2,2,2-trifluoroethyl)azetidin-3-yl]-1,3,4-oxadiazol-2-yl]-3-bicyclo[1.1.1]pentanyl]acetamide], the IC50 was 17.1 nM (H4 ATF4-NLuc (clone 17) cells) and below 1000 nM under setting [1].
Turning to `O=C(COc1ccc(Cl)c(F)c1)NC12CC(c3nnc(C4CCN(CC(F)(F)F)C4)o3)(C1)C2` (centres unmarked) [Example 16, 2-(4-chloro-3-fluoro-phenoxy)-N-[1-[5-[1-(2,2,2-trifluoroethyl)pyrrolidin-3-yl]-1,3,4-oxadiazol-2-yl]-3-bicyclo[1.1.1]pentanyl]acetamide], under setting [1], the IC50 is below 1000 nM.
As for `O=C(COc1ccc(Cl)c(F)c1)NC12CC(c3nnc(C4CC4)o3)(C1)C2` [Example 17, 2-(4-chloro-3-fluoro-phenoxy)-N-[3-(5-cyclopropyl-1,3,4-oxadiazol-2-yl)-1-bicyclo[1.1.1]pentanyl]acetamide], the IC50 under setting [1] was below 1000 nM.
For the compound `O=C(COc1ccc(Cl)c(F)c1)NC12CC(c3nnc(C4CC4(F)F)o3)(C1)C2` (centres unmarked) [Example 18, 2-(4-chloro-3-fluoro-phenoxy)-N-[3-[5-(2,2-difluorocyclopropyl)-1,3,4-oxadiazol-2-yl]-1-bicyclo[1.1.1]pentanyl]acetamide], the IC50 under setting [1] is below 1000 nM.
For `O=C(COc1ccc(Cl)c(F)c1)NC12CC(C3=NOC(C4CCCC4)C3)(C1)C2` (centres unmarked) [Example 21, 2-(4-chloro-3-fluorophenoxy)-N-(3-(5-cyclopentyl-4,5-dihydroisoxazol-3-yl)bicyclo[1.1.1]pentan-1-yl)acetamide], the IC50 under setting [1] was below 1000 nM.
Take `O=C(COc1ccc(Cl)c(F)c1)NC12CC(c3cc(C4CCCC4)on3)(C1)C2` [Example 22, 2-(4-chloro-3-fluorophenoxy)-N-(3-(5-cyclopentylisoxazol-3-yl)bicyclo[1.1.1]pentan-1-yl)acetamide]: under setting [1], the IC50 is below 1000 nM.
Consider `O=C(COc1ccc(Cl)c(F)c1)NC12CC(C3=NOC(C4CCC4)C3)(C1)C2` (centres unmarked) [Example 23, 2-(4-chloro-3-fluorophenoxy)-N-(3-(5-cyclobutyl-4,5-dihydroisoxazol-3-yl)bicyclo[1.1.1]pentan-1-yl)acetamide], for which, under setting [1], the half-maximal inhibitory concentration (IC50) is below 1000 nM.
For the compound `O=C(COc1ccc(Cl)c(F)c1)NC12CC(c3cc(C4CCC4)on3)(C1)C2` [Example 24, 2-(4-chloro-3-fluorophenoxy)-N-(3-(5-cyclobutylisoxazol-3-yl)bicyclo[1.1.1]pentan-1-yl)acetamide], the IC50 under setting [1] was below 1000 nM.
Consider `O=C(COc1ccc(Cl)c(F)c1)NC12CC(c3nnc(C4CCC4)o3)(C1)C2` [Example 25, 2-(4-chloro-3-fluoro-phenoxy)-N-[1-(5-cyclobutyl-1,3,4-oxadiazol-2-yl)-3-bicyclo[1.1.1]pentanyl]acetamide], for which the IC50 under setting [1] was below 1000 nM.
The same measure, in the same setting: under `O=C(COc1ccc(Cl)c(F)c1)NC12CC(c3cc(C4CCC4)no3)(C1)C2` [Example 26, 2-(4-Chloro-3-fluorophenoxy)-N-(3-(3-cyclobutylisoxazol-5-yl)bicyclo[1.1.1]pentan-1-yl)acetamide] stands below 1000 nM; under `O=C(COc1ccc(Cl)c(F)c1)NC12CC(c3nc(C4CCC4)co3)(C1)C2` [Example 27, 2-(4-chloro-3-fluoro-phenoxy)-N-[1-(4-cyclobutyloxazol-2-yl)-3-bicyclo[1.1.1]pentanyl]acetamide], below 1000 nM; under `O=C(COC1CCC1)NC12CC(c3cn(-c4ccc(Cl)cc4)nn3)(C1)C2` [Example 28, N-[1-[1-(4-Chlorophenyl)triazol-4-yl]-3-bicyclo[1.1.1]pentanyl]-2-(cyclobutoxy)acetamide], below 1000 nM.
`N#CC1CC(c2nnc(C34CC(NC(=O)COc5ccc(Cl)c(F)c5)(C3)C4)o2)C1` (centres unmarked) [Example 29, 2-(4-chloro-3-fluoro-phenoxy)-N-[1-[5-(3-cyanocyclobutyl)-1,3,4-oxadiazol-2-yl]-3-bicyclo[1.1.1]pentanyl]acetamide]: the IC50 under setting [1] was below 1000 nM.
Consider `C#CC12CC(NC(=O)COc3ccc(Cl)c(F)c3)(C1)C2` [Example 31, 2-(4-chloro-3-fluorophenoxy)-N-(3-ethynylbicyclo[1.1.1]pentan-1-yl)acetamide], for which the IC50 under setting [1] is 1000 to 10000 nM.
On to `O=C(COc1ccc(Cl)c(F)c1)NC12CC(c3c[nH]nn3)(C1)C2` [Example 32, N-(3-(1H-1,2,3-triazol-4-yl)bicyclo[1.1.1]pentan-1-yl)-2-(4-chloro-3-fluorophenoxy)acetamide], for which the IC50 under setting [1] is below 1000 nM.
`N#C[C@H]1C[C@H](n2ncc(C34CC(NC(=O)COc5ccc(Cl)c(F)c5)(C3)C4)n2)C1` [Example 33, 2-(4-chloro-3-fluorophenoxy)-N-(3-(2-((trans)-3-cyanocyclobutyl)-2H-1,2,3-triazol-4-yl)bicyclo[1.1.1]pentan-1-yl)acetamide]: the IC50 under setting [1] was below 1000 nM.
Same read-out and setting: in the case of `N#C[C@H]1C[C@H](n2cc(C34CC(NC(=O)COc5ccc(Cl)c(F)c5)(C3)C4)nn2)C1` [Example 34, 2-(4-chloro-3-fluorophenoxy)-N-(3-(1-((trans)-3-cyanocyclobutyl)-1H-1,2,3-triazol-4-yl)bicyclo[1.1.1]pentan-1-yl)acetamide] it was below 1000 nM; in that of `O=C(COC1CCC1)NC12CC(c3nnc(COc4ccc(Cl)c(F)c4)[nH]3)(C1)C2` [Example 37, N-(3-(5-((4-chloro-3-fluorophenoxy)methyl)-4H-1,2,4-triazol-3-yl)bicyclo[1.1.1]pentan-1-yl)-2-cyclobutoxyacetamide], 1000 to 10000 nM.
On the same count and under the same terms, in the case of `O=C(COc1ccc(Cl)c(F)c1)NC12CC(c3nnc(CC4CCC4)o3)(C1)C2` [Example 38, 2-(4-chloro-3-fluoro-phenoxy)-N-[1-[5-(cyclobutylmethyl)-1,3,4-oxadiazol-2-yl]-3-bicyclo[1.1.1]pentanyl]acetamide] it was below 1000 nM; in that of `O=C(COc1ccc(Cl)c(F)c1)NC12CC(n3cnc(C4CCC4)c3)(C1)C2` [Example 39, 2-(4-chloro-3-fluoro-phenoxy)-N-[3-(4-cyclobutylimidazol-1-yl)-1-bicyclo[1.1.1]pentanyl]acetamide], below 1000 nM; in that of `Cc1nnc(C23CC(NC(=O)COc4ccc(Cl)c(F)c4)(C2)C3)o1` [Example 40, 2-(4-chloro-3-fluoro-phenoxy)-N-[1-(5-methyl-1,3,4-oxadiazol-2-yl)-3-bicyclo[1.1.1]pentanyl]acetamide], below 1000 nM.
Consider `O=C(CO[C@H]1C[C@@H](OC(F)(F)F)C1)NC12CC(c3nnc(COc4ccc(Cl)c(F)c4)o3)(C1)C2` [Example 41, N-[1-[5-[(4-chloro-3-fluoro-phenoxy)methyl]-1,3,4-oxadiazol-2-yl]-3-bicyclo[1.1.1]pentanyl]-2-cis-[3-(trifluoromethoxy)cyclobutoxy]acetamide], for which, under setting [1], the IC50 was below 1000 nM.
The same measure, in the same setting: under `O=C(COC1CCC1)NC12CC(c3nnc(-c4ccc(Cl)c(F)c4)o3)(C1)C2` [Example 42, N-[1-[5-(4-chloro-3-fluoro-phenyl)-1,3,4-oxadiazol-2-yl]-3-bicyclo[1.1.1]pentanyl]-2-(cyclobutoxy)acetamide] stands 1000 to 10000 nM; under `O=C(COc1ccc(Cl)c(F)c1)NC12CC(c3nnc([C@H]4C[C@@H](C(F)(F)F)C4)o3)(C1)C2` [Example 43, 2-(4-chloro-3-fluorophenoxy)-N-(3-(5-((cis)-3-(trifluoromethyl)cyclobutyl)-1,3,4-oxadiazol-2-yl)bicyclo[1.1.1]pentan-1-yl)acetamide], below 1000 nM.
As to `O=C(COc1ccc(Cl)c(F)c1)NC12CC(c3nnc([C@H]4C[C@H](C(F)(F)F)C4)o3)(C1)C2` [Example 44, 2-(4-chloro-3-fluoro-phenoxy)-N-[1-[5-trans-[3-(trifluoromethyl)cyclobutyl]-1,3,4-oxadiazol-2-yl]-3-bicyclo[1.1.1]pentanyl]acetamide], under setting [1], the IC50 was below 1000 nM.
